# Source: PubChem BioAssay AID2060624 (Molecular Pharmacology Branch, DTP, NCI, 2025)
# Tested on: 217524-143-R1-J4-PDC spheroids with HUVEC/MSC, viability
# Experiment: Anticancer human tumor 217524-143-R1-J4-PDC patient-derived pancreatic carcinoma cell line growth inhibition [CLK]
# Conditions: for IC50: curve of first compound; for viability, T/C: stronger effect = lower value
# Source text: A high-throughput screen of multi-cell type tumor spheroids was designed to identify active combinations of […] and targeted small molecules. Complex spheroids include a stromal component modeled by human endothelial cells (HUVEC) and fibroblasts modeled by human mesenchymal stem cells (MSCs). The concentration ranges selected for each drug and investigational agent were based upon clinically achievable concentrations if the clinical Cmax of the agent was known.
# Compounds. The drugs and investigational agents: cirtuvivint (SM08502; NSC835563), CC-671 (NSC850746), vemurafenib (NSC761431), tapotoclax (NSC804041), sotorasib (NSC818433), adagrasib (NSC831453), MRTX-1133 (NSC836407), BAY2416964 (NSC825713), copanlisib (NSC816437), inavolisib (NSC800729), abemaciclib (NSC768073), osimertinib (NSC779217), entinostat (NSC756642), eltanexor (KPT-8602, NSC794443), venetoclax (NSC766270), ceralasertib (NSC777638), bortezomib (NSC756655), olaparib (NSC753686), talazoparib (NSC767125), alisertib (NSC759677), peposertib (NSC802822), gemcitabine (NSC613327), 5-fluorouracil (NSC19893), SN-38 (NSC673596), oxaliplatin (NSC266046), paclitaxel (NSC125973), and doxorubicin (NSC123127), were obtained from the National Cancer Institute (NCI) Developmental Therapeutics Program Chemical Repository. The FDA-approved anticancer drug set is available from the Developmental Therapeutics Program at https://dtp.cancer.gov/organization/dscb/obtaining/available plates.htm. […] The stock solutions were prepared in dimethyl sulfoxide (DMSO, Sigma-Aldrich, St. Louis, MO, cat. D2650), except for the platinum complexes which were prepared in saline (Quality Biological, Gaithersburg, MD, cat. 114-055-101), at 800-fold the tested concentration and stored at -70 degrees C prior to their use. All drugs and investigational agents were tested over a range starting from a high concentration at or near the clinical Cmax and decreasing in half-log increments. If the clinical Cmax for an agent had not been determined, the highest concentration tested was 10 microM.
# Cell Culture. All cells were maintained in an incubator at 37 degrees C and 5% CO2 with 95% humidity. The PDC lines were cultured according to standard operating procedures established by the NCI PDMR. Briefly, all PDCs were thawed and cultured in Matrigel-coated flasks prepared with a working solution of 1X Ham's F-12 nutrient mix, without supplementation (Invitrogen, Waltham, MA, cat. 11765054), 100 U/mL penicillin-streptomycin (Invitrogen, cat. 15140122), and 2.5% Matrigel (Corning Inc., Corning, NY, cat. 354248) for the first three passages. The 947758-054-R-J2-PDC line was cultured in 6B/Colon 1A media, which includes advanced DMEM/F-12 (Thermo Fisher Scientific, cat. 12634028), 10 mM HEPES (Thermo Fisher Scientific, cat. 15630080), 1X GlutaMAX supplement (Thermo Fisher Scientific, cat. 35050061), 0.1 mg/mL primocin (InvivoGen, cat. ant-pm-2), 10% defined fetal bovine serum, heat inactivated (HyClone Laboratories Inc., cat. SH30070.03HI), 1.25 mM N-Acetyl-L-cysteine (Sigma-Aldrich, cat. A9165), 10 mM nicotinamide (Sigma-Aldrich, cat. N0636), 1X B-27 supplement (Thermo Fisher Scientific, cat. 17504044), 1X N-2 supplement (Thermo Fisher Scientific, cat. 17502048), and 10 microM Y-27632 dihydrochloride (Tocris Bioscience, cat. 1254). The 876862-298-R-J1-PDC was cultured in 6E media, which includes all 6B/Colon 1A media components plus 50% L-WRN conditioned media (ATCC, cat. CRL-3276), 50 ng/mL recombinant human EGF recombinant protein (hEGF; Thermo Fisher Scientific, cat. PHG0311), 10 ng/mL recombinant human fibroblast growth factor 10 (hGFG-10; PeproTech, cat. 100-26), 1 ng/mL recombinant human fibroblast growth factor 2 (hFGF-2; PeproTech, cat. 100-18B), and 1 µM prostaglandin E2 (PGE2; Tocris, cat. 2296). The 227483-062-R1-J1-PDC line was cultured in Panc media, containing all 6E components except hFGF-2, with the addition of 500 nM SB-431542 (Selleckchem, cat. S1067) and 10 nM gastrin (Tocris, cat. 3006). […]
# [1] = second compound 0.0316 µM, first compound 0.0316 µM
# [2] = second compound 0.0316 µM, first compound 0.1 µM
# [3] = second compound 0.0316 µM, first compound 0.316 µM
# [4] = second compound 0.0316 µM, first compound 1 µM
# [5] = second compound 0.0316 µM, first compound 3.16 µM
# [6] = second compound 0.0316 µM, first compound 10 µM
# [7] = second compound 0.1 µM, first compound 0.0316 µM
# [8] = second compound 0.1 µM, first compound 0.1 µM
# [9] = second compound 0.1 µM, first compound 0.316 µM
# [10] = second compound 0.1 µM, first compound 1 µM
# [11] = second compound 0.1 µM, first compound 3.16 µM
# [12] = second compound 0.1 µM, first compound 10 µM
# [13] = second compound 0.316 µM, first compound 0.0316 µM
# [14] = second compound 0.316 µM, first compound 0.1 µM
# [15] = second compound 0.316 µM, first compound 0.316 µM
# [16] = second compound 0.316 µM, first compound 1 µM
# [17] = second compound 0.316 µM, first compound 3.16 µM
# [18] = second compound 0.316 µM, first compound 10 µM
# [19] = second compound 1 µM, first compound 0.0316 µM
# [20] = second compound 1 µM, first compound 0.1 µM
# [21] = second compound 1 µM, first compound 0.316 µM
# [22] = second compound 1 µM, first compound 1 µM
# [23] = second compound 1 µM, first compound 3.16 µM
# [24] = second compound 1 µM, first compound 10 µM
# [25] = second compound 3.16 µM, first compound 0.0316 µM
# [26] = second compound 3.16 µM, first compound 0.1 µM
# [27] = second compound 3.16 µM, first compound 0.316 µM
# [28] = second compound 3.16 µM, first compound 1 µM
# [29] = second compound 3.16 µM, first compound 3.16 µM
# [30] = second compound 3.16 µM, first compound 10 µM
# [31] = second compound 10 µM, first compound 0.0316 µM
# [32] = second compound 10 µM, first compound 0.1 µM
# [33] = second compound 10 µM, first compound 0.316 µM
# [34] = second compound 10 µM, first compound 1 µM
# [35] = second compound 10 µM, first compound 3.16 µM
# [36] = second compound 10 µM, first compound 10 µM
# 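Further: spheroids exposed to agents for seven days before reading.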
# 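Wherever viability, T/C is given: 100% = DMSO vehicle control viability.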
smiles,measurement,setting,value
CCCS(=O)(=O)Nc1ccc(F)c(C(=O)c2c[nH]c3ncc(-c4ccc(Cl)cc4)cc23)c1F + CN1CCN(c2cc(C(=O)Nc3cc4cc(-c5cnn(C)c5)ccc4cn3)ccn2)CC1,IC50,second compound 0.0316 µM,> 10000 nM
same,IC50,second compound 0.1 µM,> 10000 nM
same,IC50,second compound 0.316 µM,< 31.6 nM
same,IC50,second compound 1 µM,< 31.6 nM
same,IC50,second compound 3.16 µM,< 31.6 nM
same,IC50,second compound 10 µM,< 31.6 nM
same,"viability, T/C",[1],86.3%
same,"viability, T/C",[2],69.2%
same,"viability, T/C",[3],107%
same,"viability, T/C",[4],124%
same,"viability, T/C",[5],135%
same,"viability, T/C",[6],61.4%
same,"viability, T/C",[7],61.4%
same,"viability, T/C",[8],67.7%
same,"viability, T/C",[9],62.4%
same,"viability, T/C",[10],78.8%
same,"viability, T/C",[11],100%
same,"viability, T/C",[12],44.4%
same,"viability, T/C",[13],26.1%
same,"viability, T/C",[14],26.4%
same,"viability, T/C",[15],33.3%
same,"viability, T/C",[16],32.9%
same,"viability, T/C",[17],34.9%
same,"viability, T/C",[18],19.9%
same,"viability, T/C",[19],2.26%
same,"viability, T/C",[20],2.37%
same,"viability, T/C",[21],2.29%
same,"viability, T/C",[22],3.2%
same,"viability, T/C",[23],2.09%
same,"viability, T/C",[24],2.01%
same,"viability, T/C",[25],0.92%
same,"viability, T/C",[26],0.96%
same,"viability, T/C",[27],1.2%
same,"viability, T/C",[28],1.02%
same,"viability, T/C",[29],1.17%
same,"viability, T/C",[30],0.97%
same,"viability, T/C",[31],0.29%
same,"viability, T/C",[32],0.32%
same,"viability, T/C",[33],0.65%
same,"viability, T/C",[34],0.3%
same,"viability, T/C",[35],1.04%
same,"viability, T/C",[36],1.34%
COC1C=CCC(C)C(C)S(=O)(=O)NC(=O)c2ccc3c(c2)N(CC2CCC21)CC1(CCCc2cc(Cl)ccc21)CO3 (centres undefined) + CN1CCN(c2cc(C(=O)Nc3cc4cc(-c5cnn(C)c5)ccc4cn3)ccn2)CC1,IC50,second compound 0.0316 µM,6400 nM
same,IC50,second compound 0.1 µM,4170 nM
same,IC50,second compound 0.316 µM,< 31.6 nM
same,IC50,second compound 1 µM,< 31.6 nM
same,IC50,second compound 3.16 µM,< 31.6 nM
same,IC50,second compound 10 µM,< 31.6 nM
same,"viability, T/C",[1],90.2%
same,"viability, T/C",[2],93.2%
same,"viability, T/C",[3],75%
same,"viability, T/C",[4],91.2%
same,"viability, T/C",[5],107%
same,"viability, T/C",[6],23.8%
same,"viability, T/C",[7],65.7%
same,"viability, T/C",[8],67.5%
same,"viability, T/C",[9],56%
same,"viability, T/C",[10],61.4%
same,"viability, T/C",[11],58.5%
same,"viability, T/C",[12],24.5%
same,"viability, T/C",[13],23.9%
same,"viability, T/C",[14],23.3%
same,"viability, T/C",[15],23.3%
same,"viability, T/C",[16],22.9%
same,"viability, T/C",[17],27%
same,"viability, T/C",[18],16.6%
same,"viability, T/C",[19],2.49%
same,"viability, T/C",[20],1.84%
same,"viability, T/C",[21],1.71%
same,"viability, T/C",[22],1.6%
same,"viability, T/C",[23],1.08%
same,"viability, T/C",[24],1.77%
same,"viability, T/C",[25],0.91%
same,"viability, T/C",[26],1.31%
same,"viability, T/C",[27],0.81%
same,"viability, T/C",[28],1%
same,"viability, T/C",[29],1.26%
same,"viability, T/C",[30],0.8%
same,"viability, T/C",[31],1.26%
same,"viability, T/C",[32],0.35%
same,"viability, T/C",[33],0.37%
same,"viability, T/C",[34],0.37%
same,"viability, T/C",[35],0.36%
same,"viability, T/C",[36],1.06%
